Assay results: patent US11970474B2, “Substituted benzodiazoles and use thereof in therapy” (THOMAS HELLEDAYS STIFTELSE FÖR MEDICINSK FORSKNING, priority 2018, dated 2024)
Read-outs that look alike come from different tables or passages of the source.

How the values were obtained:
MLE12 cells = experiment: Cell viability assay in MLE12 cells (resazurin); format: cell-based, mouse; conditions: TNF-α 20 ng/ml, resazurin added after 24 hours culture
Method: (§1) Stock solutions (10 mM in DMSO) of compounds were dispensed in V-bottom 384-well plates and the following dilutions were prepared: 10 mM and 0.05 mM. The dilutions were transferred to the source plate. Duplicate 6 points dose-response curves of compounds were nano-dispensed in cell plates (CCL2 assay) and in parallel, 11 points DR curves in duplicates were nano-dispensed for the viability assay. The plates were heat sealed and kept at RT until use.
(§2) MLE12 cells in flasks were washed once with PBS, detached with Trypsin/EDTA, resuspended in fresh medium and counted. Cells were diluted to 3×10^5 cells/ml and seeded with Multidrop Combi in cell plates pre-dispensed with compounds, 25 μl/well (7500 cells/well). The plates were placed, one by one, in a CO2-incubator at 37° C. for 1 hour after which 25 μl/well of TNF-α (final concentration 20 ng/ml) were added. The plates were transferred back to the CO2-incubator placed in a plastic box with wet tissue in the bottom, to avoid evaporation, for 30 hours.
After 24 hours culture, resazurin reagent (stock 1 mg/ml in PBS) diluted 1:17 in PBS was added with Multidrop Combi, 10 μl/well, and plates were incubated for 6 hours. Plates were read in Sense plate reader with resorufin protocol (ex544 nm/em595 nm). The results were imported to an excel template where the EC50 values were calculated using XLfit.

CCL2 = experiment: Mouse CCL2 assay in MLE12 cells; format: cell-based
Text: Cisbio mouse CCL2 assay is intended for the quantitative measurement of CCL2 in supernatant using HTRF® technology. The assay is compatible with mouse samples, and is highly specific for CCL2. CCL2 is detected in a sandwich assay format using 2 different specific antibodies, one labeled with Cryptate (donor) and the second with d2 (acceptor). The detection principle is based on HTRF® technology. When the labelled antibodies bind to the same antigen, the excitation of the donor with a light source (laser or flash lamp) triggers a Fluorescence Resonance Energy Transfer (FRET) towards the acceptor, which in turn fluoresces at a specific wavelength (665 nm). The two antibodies bind to the CCL2 present in the sample, thereby generating FRET. Signal intensity is proportional to the number of antigen-antibody complexes formed and therefore to the CCL2 concentration. • Materials: • Cells: MLE12 (Mouse Lung Epithelial cells, SV40 transformed) • Medium: DMEM/F12 (Gibco #11330057), FBS 5% (Gibco #10500064), Pen/Strep 50 U/50 μg/ml (Gibco #15070063) • Cell plates: 384-well, black/clear, TC-treated (Corning #3764) • Source plate: Labcyte LDV 384 (Labcyte #LP-0200) • Compound dilution plate: V-bottom 384-well PP plate (Greiner #781280) • Compounds: 10 mM stocks in DMSO • HTRF plates: 384-well, white, half area, non-binding (Costar #3824) • Mouse CCL2 kit: Cisbio 62MCCL2PEH • Other reagents: Trypsin/EDTA 10× (Gibco #15400054), PBS (Gibco #14190169), Resazurin (Sigma-Aldrich #199303), 1 mg/ml in PBS, TNF-α 200 μg/ml in PBS (Peprotech #300-01A) • Instruments: • Echo liquid handler (Labcyte) • Multidrop Combi (Thermo Scientific) • Sense plate reader (Hidex) Compound Handling:
as §1, §2
After 30 hours incubation, the plates were spun down 5 minutes at 400 g, and 16 μl/well of the supernatants were transferred to the assay plate. A mCCL2 standard curve was prepared according to the kit protocol and 16 μl/well of the standards were also added to the assay plate.
The anti-CCL2 antibody mix was prepared according to the kit protocol, and 4 μl/well were added to the assay plate. The plate was sealed and incubated over night at RT. After incubation the plate was read in Sense plate reader with Time-resolved FRET protocol (Ex330 nm/Em 620 and 665 nm). After data reduction, the delta ratios were imported to an excel template where the IC50 values were calculated.

OGG1 = OGG1 (Homo sapiens (Human), UniProt O15527); experiment: In vitro OGG1 activity assay; format: biochemical; conditions: 800 pM OGG1 enzyme, 2 nM human APEX1, 10 nM 8-oxoA:C substrate
Chain of OGG1 (O15527 whole entry): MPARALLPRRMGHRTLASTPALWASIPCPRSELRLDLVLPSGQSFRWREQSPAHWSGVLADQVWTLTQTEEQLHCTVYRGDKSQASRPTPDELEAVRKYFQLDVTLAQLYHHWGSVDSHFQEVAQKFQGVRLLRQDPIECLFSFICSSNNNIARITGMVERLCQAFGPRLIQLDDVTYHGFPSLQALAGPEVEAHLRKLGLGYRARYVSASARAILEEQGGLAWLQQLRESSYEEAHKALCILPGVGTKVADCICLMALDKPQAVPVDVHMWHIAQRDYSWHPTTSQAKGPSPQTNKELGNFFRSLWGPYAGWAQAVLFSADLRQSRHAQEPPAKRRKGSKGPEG
Outline: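 Fluorescence-release assay on a duplex oligonucleotide carrying an OGG1 substrate base beside a fluorophore, quenched from the complementary strand. Excess APEX1 cleaves the abasic site left by base excision, melting the duplex and unquenching the fluorophore. Compounds in DMSO were dispensed before enzyme and substrate, and fluorescein signal was read.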

[1] = Mus musculus, MLE12, 30 h, MLE12 cells, TNF-α 20 ng/ml, supernatant after 30 hours, HTRF, read-out: CCL2 (EC50)

| SMILES | EC50 (CCL2; [1]) [nM] | IC50 (OGG1) [µM] | EC50 (CCL2; MLE12 cells, TNF-α 20 ng/ml, supernatant after 30 hours, HTRF, read-out: CCL2 (EC50)) [nM] | IC50 (MLE12 cells; Mus musculus, MLE12, 24 h) [µM] | IC50 (MLE12 cells; Mus musculus) [µM] | EC50 (CCL2; Mus musculus, MLE12, 30 h, read-out: CCL2 (EC50, nM)) [nM] | IC50 (MLE12 cells) [µM] |
| --- | --- | --- | --- | --- | --- | --- | --- |
| Nc1cccc2c1[nH]c(=O)n2C1CCN(C(=O)Nc2ccc(I)cc2)CC1 [Example 20, 4-(4-Amino-2-oxo-2,3-dihydro-1H-1,3-benzodiazol-1-yl)-N-(4-iodophenyl)piperidine-1-carboxamide] | 33000 | – | – | 11.5 | – | – | – |
| O=C(Nc1ccc(I)cc1)N1CCC(n2c(=O)[nH]c3c(-n4cccn4)cccc32)CC1 [Example 22, N-(4-iodophenyl)-4-[2-oxo-4-(1H-pyrazol-1-yl)-2,3-dihydro-1H-1,3-benzodiazol-1-yl]piperidine-1-carboxamide] | 52700 | 0.848 | – | 13.8 | – | – | – |
| O=C(Nc1ccc(I)cc1)N1CCC(n2c(=O)[nH]c3c(-n4cc(Br)cn4)cccc32)CC1 [Example 41, 4-[4-(4-Bromo-1H-pyrazol-1-yl)-2-oxo-2,3-dihydro-1H-1,3-benzodiazol-1-yl]-N-(4-iodophenyl)piperidine-1-carboxamide] | 50700 | – | – | 16.6 | – | – | – |
| O=C(Nc1ccc(Cl)c(Cl)c1)N1C2CCC1CC(n1c(=O)[nH]c3c(Br)cccc31)C2 (stereo not drawn) [Example 72, 3-(4-Bromo-2-oxo-2,3-dihydro-1H-1,3-benzodiazol-1-yl)-N-(3,4-dichlorophenyl)-(endo)-8-azabicyclo[3.2.1]octane-8-carboxamide] | – | 0.067 | – | – | 6.31 | 21500 | – |
| COc1cc(NC(=O)N2CCC(n3c(=O)[nH]c4c(Br)cccc43)CC2)ccc1C [Example 75, 4-(4-Bromo-2-oxo-2,3-dihydro-1H-1,3-benzodiazol-1-yl)-N-(3-methoxy-4-methylphenyl)piperidine-1-carboxamide] | 34100 | 0.223 | 39400 | 10.4 | – | – | 12.8 |
| COc1cc(NC(=O)N2CCC(n3c(=O)[nH]c4c(-c5ccc(CO)nc5)cccc43)CC2)ccc1Cl [Example 83, N-(4-Chloro-3-methoxyphenyl)-4-{4-[6-(hydroxymethyl)pyridin-3-yl]-2-oxo-2,3-dihydro-1H-1,3-benzodiazol-1-yl}piperidine-1-carboxamide] | 34700 | 0.958 | – | 14 | – | – | – |
| Cc1ccc(NC(=O)[C@H]2CC[C@@H](n3c(=O)[nH]c4c(Br)cccc43)CC2)cc1C [Example 124, (Cis)-4-(4-bromo-2-oxo-2,3-dihydro-1H-1,3-benzodiazol-1-yl)-N-(3,4-dimethylphenyl)cyclohexane-1-carboxamide] | 31200 | – | – | 11.5 | – | – | – |
| COc1cc(NC(=O)[C@H]2CC[C@@H](n3c(=O)[nH]c4c(N)cccc43)CC2)ccc1C [Example 249, Cis-4-(4-amino-2-oxo-2,3-dihydro-1H-1,3-benzodiazol-1-yl)-N-(3-methoxy-4-methylphenyl)cyclohexane-1-carboxamide] | 34700 | – | – | 15.7 | – | – | – |
| COc1cc(NC(=O)[C@H]2CC[C@@H](n3c(=O)[nH]c4c(OCCOC5CCCCC5)cccc43)CC2)ccc1C [Example 326, Cis-4-(4-(2-(cyclohexyloxy)ethoxy)-2-oxo-2,3-dihydro-1H-benzo[d]imidazol-1-yl)-N-(3-methoxy-4-methylphenyl)cyclohexanecarboxamide] | – | 0.118 | – | – | – | – | – |

Continued by falling EC50 (CCL2; [1]), values first:

| EC50 (CCL2; [1]) [nM] | IC50 (OGG1) [µM] | EC50 (CCL2; MLE12 cells, TNF-α 20 ng/ml, supernatant after 30 hours, HTRF, read-out: CCL2 (EC50)) [nM] | SMILES | IC50 (MLE12 cells; Mus musculus, MLE12, 24 h) [µM] | IC50 (MLE12 cells; Mus musculus) [µM] | EC50 (CCL2; Mus musculus, MLE12, 30 h, read-out: CCL2 (EC50, nM)) [nM] | IC50 (MLE12 cells) [µM] |
| --- | --- | --- | --- | --- | --- | --- | --- |
| 30800 | 1 | – | COc1cc(NC(=O)N2CCC(n3c(=O)[nH]c4c(-c5ccc(CO)nc5)cccc43)CC2)ccc1C [Example 82, 4-{4-[6-(Hydroxymethyl)pyridin-3-yl]-2-oxo-2,3-dihydro-1H-1,3-benzodiazol-1-yl}-N-(3-methoxy-4-methylphenyl)piperidine-1-carboxamide] | 17.7 | – | – | – |
| 29000 | 0.728 | – | O=C(Nc1ccc(I)cc1)N1CCC(n2c(=O)[nH]c3c(-n4cncn4)cccc32)CC1 [Example 23, N-(4-iodophenyl)-4-[2-oxo-4-(1H-1,2,4-triazol-1-yl)-2,3-dihydro-1H-1,3-benzodiazol-1-yl]piperidine-1-carboxamide] | 19.9 | – | – | – |
| 22600 | – | – | COc1cc(NC(=O)[C@H]2CC[C@@H](n3c(=O)[nH]c4c(Br)cccc43)CC2)ccc1F [Example 130, (Cis)-4-(4-bromo-2-oxo-2,3-dihydro-1H-1,3-benzodiazol-1-yl)-N-(4-fluoro-3-methoxyphenyl)cyclohexane-1-carboxamide] | 6.36 | – | – | – |
| 21200 | 0.358 | – | COc1cc(NC(=O)N2CCC(n3c(=O)[nH]c4c(Br)cccc43)CC2)ccc1Cl [Example 77, 4-(4-Bromo-2-oxo-2,3-dihydro-1H-1,3-benzodiazol-1-yl)-N-(4-chloro-3-methoxyphenyl)piperidine-1-carboxamide] | 7.4 | – | – | – |
| 17400 | 1.59 | – | O=C(Nc1ccc(Cl)c(Cl)c1)N1CCC(n2c(=O)[nH]c3c(-c4cncnc4)cccc32)CC1 [Example 37, N-(3,4-dichlorophenyl)-4-[2-oxo-4-(pyrimidin-5-yl)-2,3-dihydro-1H-1,3-benzodiazol-1-yl]piperidine-1-carboxamide] | 7.03 | – | – | – |
| 16300 | 0.488 | – | O=C(Nc1ccc(Cl)c(Cl)c1)N1CCC(n2c(=O)[nH]c3c(Br)cccc32)CC1 [Example 27, 4-(4-Bromo-2-oxo-2,3-dihydro-1H-1,3-benzodiazol-1-yl)-N-(3,4-dichlorophenyl)piperidine-1-carboxamide] | 7.74 | – | – | – |
| 15400 | – | – | O=C(Nc1ccc(I)cc1)N1CCC(n2c(=O)[nH]c3cc(Cl)ccc32)CC1 [Example 2, 4-(5-Chloro-2-oxo-2,3-dihydro-1H-1,3-benzodiazol-1-yl)-N-(4-iodophenyl) piperidine-1-carboxamide] | 10.3 | – | – | – |
| 15200 | 0.379 | – | O=C(Nc1ccc(Br)c(Cl)c1)N1CCC(n2c(=O)[nH]c3c(Br)cccc32)CC1 [Example 49, 4-(4-Bromo-2-oxo-2,3-dihydro-1H-1,3-benzodiazol-1-yl)-N-(4-bromo-3-chlorophenyl)piperidine-1-carboxamide] | 5.4 | – | – | – |
| 15100 | 0.788 | – | Nc1ccc(-c2cccc3c2[nH]c(=O)n3C2CCN(C(=O)Nc3ccc(Cl)c(Cl)c3)CC2)cn1 [Example 39, 4-[4-(6-Aminopyridin-3-yl)-2-oxo-2,3-dihydro-1H-1,3-benzodiazol-1-yl]-N-(3,4-dichlorophenyl)piperidine-1-carboxamide] | 6.5 | – | – | – |
| 15000 | – | – | O=C(Nc1ccc(I)cc1)N1CCC(n2c(=O)[nH]c3c(-c4cccnc4)cccc32)CC1 [Example 26, N-(4-iodophenyl)-4-[2-oxo-4-(pyridin-3-yl)-2,3-dihydro-1H-1,3-benzodiazol-1-yl]piperidine-1-carboxamide] | 7.7 | – | – | – |
| 13000 | – | – | O=c1[nH]c2c(Br)cccc2n1[C@H]1CC[C@@H](C(=O)Nc2ccc(Cl)c(F)c2)CC1 [Example 121, (Cis)-4-(4-bromo-2-oxo-2,3-dihydro-1H-1,3-benzodiazol-1-yl)-N-(4-chloro-3-fluorophenyl)cyclohexane-1-carboxamide] | 4.86 | – | – | – |
